From PubChem BioAssay (NCI)
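Results reflect a 48-hour exposure of cells in 96-well plates to compound at five concentrations. TGI: concentration producing complete growth inhibition.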 Where a SMILES comes first, the peptide text is derived from it. [ ]: non-standard residue; d: D form. The star is where a group is joined. NMeV = CN[C@H](C(=O)O)C(C)C; X29 = COc1ccc(CN*)c(OC)c1; Octanoyl = CCCCCCCC(=O)*; dNMeA = CN[C@H](C)C(=O)O

Legend:
Experiment in all cases: growth of human tumour cells (NCI), 48 h
OVCAR-4 ovarian = tested on: OVCAR-4 ovarian
CAKI-1 renal = tested on: CAKI-1 renal
CCRF-CEM leukemia = tested on: CCRF-CEM leukemia
OVCAR-3 ovarian = tested on: OVCAR-3 ovarian
NCI-H522 lung = tested on: NCI-H522 lung
ACHN renal = tested on: ACHN renal
MOLT-4 leukemia = tested on: MOLT-4 leukemia
SNB-75 CNS = tested on: SNB-75 CNS

Row | SMILES | TGI (OVCAR-4 ovarian) | TGI (CAKI-1 renal) | TGI (CCRF-CEM leukemia) | TGI (OVCAR-3 ovarian) | TGI (NCI-H522 lung) | TGI (ACHN renal) | TGI (MOLT-4 leukemia) | TGI (SNB-75 CNS)
1 | COC1/C=C/C(C)C(C(C)C(OC)C(C)CCC(=O)C(C)C(C/C=C/N(C)C=O)OC)OC(=O)C=CC2OC2(C)CC(OC)C(OC)C2=CC(=O)O[C@@H](C(C)C(OC)CC(OC)/C=C/C(C)C(O)C1)[C@H]2O (stereo not given in full) | > 1.24 µM | 0.0203 µM | > 1.24 µM | 0.0341 µM | 0.0296 µM | 0.016 µM |  | 
2 | CC1=NNC(=O)C1C1CC(c2c[nH]c3ccccc23)=NNC1=O (stereo not given) |  | > 100 µM | > 100 µM | > 100 µM | > 100 µM | > 100 µM | > 100 µM | > 100 µM
3 | C=C(Br)CNC(=O)Nc1ccc(Cl)c(Cl)c1 | > 100 µM | 54.2 µM | 45.1 µM | 38.8 µM | 57.4 µM | 55 µM | 73.9 µM | 51.5 µM
4 | N#CC1C(=O)NC23CCCCC2C1c1ccccc1O3 (stereo not given) | > 100 µM | > 100 µM | > 100 µM | > 100 µM | > 100 µM | > 100 µM | > 100 µM | > 100 µM
5 | CCOC(=O)C1=NOC2(C=C(Br)C(=O)C(Br)=C2)C1 |  | 2.88 µM |  |  | 1.34 µM | 2.25 µM | 0.304 µM | 33.4 µM
6 | CC(=O)c1ccc2c(c1)CC1(C2)Cc2cc3c(cc2C1=O)CCC3 (stereo not given) | 48 µM | 47 µM | 59.2 µM | 40.6 µM | 83.6 µM | 58.2 µM | 21.8 µM | 41.2 µM
7 | C[C@]12CC[C@@H]3c4cc(OCC(F)(F)F)c(O)cc4CC[C@H]3[C@@H]1CC[C@@H]2O | > 53.1 µM | 29.9 µM | 15.2 µM | 12.9 µM | 3.88 µM | 47.1 µM | 18.9 µM | 13.2 µM
8 | CCOC(=O)C1C(c2ccc3c(c2)OCO3)c2c([nH][nH]c2=O)CC1(C)O (stereo not given) | > 100 µM | > 100 µM | > 100 µM | > 100 µM | > 100 µM | > 100 µM | > 100 µM | > 100 µM
9 | O=C(c1ccccc1)c1ccc2nc(-c3c(Cl)c(Cl)c(Cl)c(Cl)c3C(=O)N/N=C/c3ccc(Cl)cc3)[nH]c2c1 | > 100 µM | > 100 µM | 71.3 µM | 51.5 µM | > 100 µM | 65.7 µM | > 100 µM | > 100 µM
10 | CN(C)c1ccc(C(Cc2ccccc2)C2NC(=S)NC2=O)cc1 (stereo not given) | > 100 µM | > 100 µM | > 100 µM | > 100 µM | > 100 µM | > 100 µM | > 100 µM | > 100 µM
11 | CCC(CCCN)Nc1cc(OC)cc2c(C)ccnc12 (stereo not given) | 39 µM | 29.5 µM | 52.6 µM | 34.7 µM |  | 32.6 µM | 40 µM | 25.3 µM
12 | COc1cc2c3c(c1)CCCN3CCC2 | > 10 µM | > 10 µM | > 10 µM | > 10 µM | > 10 µM | > 10 µM | > 10 µM | > 10 µM
13 | NC(N)=NCC[C@H](NC(=O)OCCCCCn1ccc(=O)[nH]c1=O)C(=O)O | > 100 µM | > 100 µM | > 100 µM | > 100 µM |  | > 100 µM | > 100 µM | > 100 µM
14 | CC1(C)C=Cc2c(cc(O)c3c(=O)c4cc(Cl)ccc4[nH]c23)O1 | > 10 µM | > 10 µM | > 10 µM | 3.01 µM | 6.46 µM | > 10 µM | 8.22 µM | > 10 µM
15 | Nc1n[n+](CC(=O)c2ccccc2)c2sc(-c3ccccc3)nn12 | > 100 µM | > 100 µM | > 100 µM | > 100 µM | > 100 µM | > 100 µM | > 100 µM | > 100 µM
16 | CNC(=O)C1(N)c2ccccc2C=Cc2ccccc21 | > 100 µM | > 100 µM | > 100 µM | > 100 µM | > 100 µM | > 100 µM | > 100 µM | 
17 | O=C(NC1=C(Cl)C(=O)c2ccccc2C1=O)c1ccc(F)cc1 | 20 µM |  |  | 12.3 µM | 1.84 µM | 4.85 µM | 7.13 µM | 22.1 µM
18 | COc1cc(/C=C/c2nc(NC(=S)Nc3ccccc3)nnc2C)cc(OC)c1OC | 76.4 µM | > 100 µM | 57.7 µM |  | 28.4 µM | 48.1 µM | > 100 µM | 
19 | COc1cc2c(c(OC)c1)/C(=C/Sc1ccccc1)C(=O)N(C(C)(C)C)C2 | > 100 µM | > 100 µM | > 100 µM | 53.2 µM |  | > 100 µM | > 100 µM | 
20 | CCC(C=O)P1(=O)OC(C)(C)CN1C(C)(C)C (stereo not given) | > 100 µM | > 100 µM |  | 81.3 µM |  | > 100 µM |  | 
21 | O=S1(=O)OCCOS(=O)(=O)C1(F)Br | > 100 µM | > 100 µM | > 100 µM | > 100 µM | > 100 µM | > 100 µM | > 100 µM | > 100 µM
22 | COc1cc2c(cc1OC)C1C=NC(C2)c2cc(OC)c(OC)cc21 (stereo not given) | > 100 µM | > 100 µM |  | > 100 µM | > 100 µM | > 100 µM | > 100 µM | > 100 µM
23 | CC1=NN(C(=O)c2ccncc2)C(=O)C1 | > 100 µM | > 100 µM | > 100 µM | > 100 µM | > 100 µM | > 100 µM | > 100 µM | > 100 µM
24 | CCN1C(=O)c2cc(OC)c(OC)cc2C(=O)C12OC(=O)c1cc3c(cc12)OCO3 (stereo not given) | > 100 µM | > 100 µM | > 100 µM | > 100 µM | > 100 µM | > 100 µM | > 100 µM | 48.5 µM
25 | CCCCCCCC(=O)N[C@H](C(=O)N[C@H](C(=O)N(C)[C@H](C(=O)N1CCC[C@H]1C(=O)N(C)[C@H](C)C(=O)NCc1ccc(OC)cc1OC)C(C)C)C(C)C)C(C)C (Octanoyl-VV[NMeV]P[dNMeA]-X29) | > 79.9 µM | > 86.3 µM | > 72.9 µM | > 100 µM | 31.4 µM | 42.4 µM | > 90.4 µM | > 100 µM
